Results: PubChem BioAssay (NCI)
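Each compound was tested at five concentrations against cells in 96-well plates for 48 hours. GI50 marks 50% less growth. TGI: concentration producing complete growth inhibition.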

Experiments:
Experiment in all cases: DTP human tumour cell line panel, 48 h
NCI-H23 lung = test system: NCI-H23 lung
UACC-62 melanoma = test system: UACC-62 melanoma
OVCAR-3 ovarian = test system: OVCAR-3 ovarian
CCRF-CEM leukemia = test system: CCRF-CEM leukemia
UO-31 renal = test system: UO-31 renal
SF-268 CNS = test system: SF-268 CNS
OVCAR-5 ovarian = test system: OVCAR-5 ovarian
NCI-H522 lung = test system: NCI-H522 lung
SNB-19 CNS = test system: SNB-19 CNS
CAKI-1 renal = test system: CAKI-1 renal
ACHN renal = test system: ACHN renal
SN12C renal = test system: SN12C renal
NCI-H460 lung = test system: NCI-H460 lung
SNB-75 CNS = test system: SNB-75 CNS
LOX IMVI melanoma = test system: LOX IMVI melanoma
MCF7 breast = test system: MCF7 breast
BT-549 breast = test system: BT-549 breast
NCI/ADR-RES ovarian = test system: NCI/ADR-RES ovarian
IGROV1 ovarian = test system: IGROV1 ovarian
DU-145 prostate = test system: DU-145 prostate
786-0 renal = test system: 786-0 renal
HS 578T breast = test system: HS 578T breast
MOLT-4 leukemia = test system: MOLT-4 leukemia
SR leukemia = test system: SR leukemia
OVCAR-4 ovarian = test system: OVCAR-4 ovarian
A498 renal = test system: A498 renal
RXF 393 renal = test system: RXF 393 renal
HCT-15 colon = test system: HCT-15 colon
HCT-116 colon = test system: HCT-116 colon
NCI-H226 lung = test system: NCI-H226 lung
SK-MEL-5 melanoma = test system: SK-MEL-5 melanoma
SK-OV-3 ovarian = test system: SK-OV-3 ovarian
SF-295 CNS = test system: SF-295 CNS
UACC-257 melanoma = test system: UACC-257 melanoma
RPMI-8226 leukemia = test system: RPMI-8226 leukemia
SK-MEL-2 melanoma = test system: SK-MEL-2 melanoma
MDA-MB-231 breast = test system: MDA-MB-231 breast
MDA-MB-435 = test system: MDA-MB-435
COLO 205 colon = test system: COLO 205 colon
A549 NSCLC = test system: A549 NSCLC
HOP-92 NSCLC = test system: HOP-92 NSCLC
M14 melanoma = test system: M14 melanoma
KM12 colon = test system: KM12 colon
HT29 colon = test system: HT29 colon
U251 CNS = test system: U251 CNS
EKVX NSCLC = test system: EKVX NSCLC
SW-620 colon = test system: SW-620 colon
HCC-2998 colon = test system: HCC-2998 colon
K-562 leukemia = test system: K-562 leukemia
TK-10 renal = test system: TK-10 renal
SK-MEL-28 melanoma = test system: SK-MEL-28 melanoma
PC-3 prostate = test system: PC-3 prostate
HL-60(TB) leukemia = test system: HL-60(TB) leukemia
SF-539 CNS = test system: SF-539 CNS
T-47D breast = test system: T-47D breast
MALME-3M melanoma = test system: MALME-3M melanoma

CCOc1ccc2cc(-c3nn(CC4CCN(C)CC4)c4ncnc(N)c34)ccc2c1 was tested, and the GI50 (NCI-H23 lung) was 15.1 µM, the TGI (NCI-H23 lung) was 41.6 µM and the GI50 (UACC-62 melanoma) was 16.3 µM. For the same compound, the TGI (UACC-62 melanoma) was 32.5 µM, the GI50 (OVCAR-3 ovarian) was 16.2 µM and the TGI (OVCAR-3 ovarian) was 39.7 µM. For the same compound, the GI50 (CCRF-CEM leukemia) was 16.8 µM, the TGI (CCRF-CEM leukemia) was 55.2 µM and the GI50 (UO-31 renal) was 4.2 µM. The TGI (UO-31 renal) was 19.5 µM, the GI50 (SF-268 CNS) was 13.7 µM and the TGI (SF-268 CNS) was 30.2 µM. The GI50 (OVCAR-5 ovarian) was 14.4 µM, the TGI (OVCAR-5 ovarian) was 32.2 µM and the GI50 (NCI-H522 lung) was 16.6 µM. For the same compound, the TGI (NCI-H522 lung) was 33.5 µM, the GI50 (SNB-19 CNS) was 15.6 µM and the TGI (SNB-19 CNS) was 45.9 µM. For the same compound, the GI50 (CAKI-1 renal) was 11.1 µM, the TGI (CAKI-1 renal) was 25.8 µM and the GI50 (ACHN renal) was 14.7 µM. The TGI (ACHN renal) was 33 µM, the GI50 (SN12C renal) was 12 µM and the TGI (SN12C renal) was 32.1 µM. For the same compound, the GI50 (NCI-H460 lung) was 16.7 µM, the TGI (NCI-H460 lung) was 33.7 µM and the GI50 (SNB-75 CNS) was 1.56 µM. For the same compound, the TGI (SNB-75 CNS) was 15.9 µM, the GI50 (LOX IMVI melanoma) was 19.4 µM and the TGI (LOX IMVI melanoma) was 59 µM. For the same compound, the GI50 (MCF7 breast) was 13.4 µM, the TGI (MCF7 breast) was 37.1 µM and the GI50 (BT-549 breast) was 13.6 µM. The TGI (BT-549 breast) was 29 µM, the GI50 (NCI/ADR-RES ovarian) was 14.7 µM and the TGI (NCI/ADR-RES ovarian) was 28.2 µM. For the same compound, the GI50 (IGROV1 ovarian) was 11.2 µM, the TGI (IGROV1 ovarian) was 31.4 µM and the GI50 (DU-145 prostate) was 28.4 µM. It also gave a TGI (DU-145 prostate) of over 100 µM, a GI50 (786-0 renal) of 14.5 µM and a TGI (786-0 renal) of 29.7 µM. For the same compound, the GI50 (HS 578T breast) was 11.1 µM, the TGI (HS 578T breast) was 33.7 µM and the GI50 (MOLT-4 leukemia) was 4.84 µM. For the same compound, the TGI (MOLT-4 leukemia) was 24.6 µM, the GI50 (SR leukemia) was 3.63 µM and the TGI (SR leukemia) was 18 µM. For the same compound, the GI50 (OVCAR-4 ovarian) was 12.9 µM, the TGI (OVCAR-4 ovarian) was 29.7 µM and the GI50 (A498 renal) was 11.8 µM. It also gave a TGI (A498 renal) of 25.2 µM, a GI50 (RXF 393 renal) of 4.12 µM and a TGI (RXF 393 renal) of 18.6 µM. The GI50 (HCT-15 colon) was 12.3 µM, the TGI (HCT-15 colon) was 30.9 µM and the GI50 (HCT-116 colon) was 12.1 µM. The TGI (HCT-116 colon) was 28.1 µM, the GI50 (NCI-H226 lung) was 14.2 µM and the TGI (NCI-H226 lung) was 40.3 µM. It also gave a GI50 (SK-MEL-5 melanoma) of 15.8 µM, a TGI (SK-MEL-5 melanoma) of 29.3 µM and a GI50 (SK-OV-3 ovarian) of 11.2 µM. For the same compound, the TGI (SK-OV-3 ovarian) was 36.1 µM, the GI50 (SF-295 CNS) was 14.5 µM and the TGI (SF-295 CNS) was 29.2 µM. It also gave a GI50 (UACC-257 melanoma) of 14.7 µM, a TGI (UACC-257 melanoma) of 30.2 µM and a GI50 (RPMI-8226 leukemia) of 10.3 µM. For the same compound, the TGI (RPMI-8226 leukemia) was 30.5 µM, the GI50 (SK-MEL-2 melanoma) was 17 µM and the TGI (SK-MEL-2 melanoma) was 32.4 µM. For the same compound, the GI50 (MDA-MB-231 breast) was 4.52 µM, the TGI (MDA-MB-231 breast) was 18.4 µM and the GI50 (MDA-MB-435) was 12.2 µM. It also gave a TGI (MDA-MB-435) of 24.7 µM, a GI50 (COLO 205 colon) of 11.9 µM and a TGI (COLO 205 colon) of 26.7 µM. It also gave a GI50 (A549 NSCLC) of 17.9 µM, a TGI (A549 NSCLC) of 40.2 µM and a GI50 (HOP-92 NSCLC) of 5.9 µM. For the same compound, the TGI (HOP-92 NSCLC) was 26.1 µM, the GI50 (M14 melanoma) was 15.8 µM and the TGI (M14 melanoma) was 32.5 µM. For the same compound, the GI50 (KM12 colon) was 18 µM, the TGI (KM12 colon) was 45.2 µM and the GI50 (HT29 colon) was 7.01 µM. The TGI (HT29 colon) was 27.3 µM, the GI50 (U251 CNS) was 12.9 µM and the TGI (U251 CNS) was 27.5 µM. It also gave a GI50 (EKVX NSCLC) of 26.4 µM, a TGI (EKVX NSCLC) of over 100 µM and a GI50 (SW-620 colon) of 15.7 µM. It also gave a TGI (SW-620 colon) of 31.7 µM, a GI50 (HCC-2998 colon) of 17.1 µM and a TGI (HCC-2998 colon) of 32 µM. It also gave a GI50 (K-562 leukemia) of 11.6 µM, a TGI (K-562 leukemia) of 27.7 µM and a GI50 (TK-10 renal) of 14.4 µM. The TGI (TK-10 renal) was 34.3 µM, the GI50 (SK-MEL-28 melanoma) was 3.12 µM and the TGI (SK-MEL-28 melanoma) was 10.1 µM. For the same compound, the GI50 (PC-3 prostate) was 17 µM, the TGI (PC-3 prostate) was 43.5 µM and the GI50 (HL-60(TB) leukemia) was 15.7 µM. For the same compound, the TGI (HL-60(TB) leukemia) was 34.6 µM, the GI50 (SF-539 CNS) was 14.1 µM and the TGI (SF-539 CNS) was 27.2 µM.

COc1cc(C2CC(c3ccc(Cl)cc3)=NN2C(C)=O)ccc1Oc1ccnc2cc(Cl)ccc12 (stereo unspecified) was tested, and the GI50 (UACC-62 melanoma) was over 100 µM, the TGI (UACC-62 melanoma) was over 100 µM and the GI50 (CCRF-CEM leukemia) was over 100 µM. For the same compound, the TGI (CCRF-CEM leukemia) was over 100 µM, the GI50 (OVCAR-5 ovarian) was over 100 µM and the TGI (OVCAR-5 ovarian) was over 100 µM. For the same compound, the GI50 (SNB-19 CNS) was over 100 µM, the TGI (SNB-19 CNS) was over 100 µM and the GI50 (CAKI-1 renal) was over 100 µM. It also gave a TGI (CAKI-1 renal) of over 100 µM, a GI50 (SN12C renal) of over 100 µM and a TGI (SN12C renal) of over 100 µM. The GI50 (SNB-75 CNS) was 1.66 µM, the TGI (SNB-75 CNS) was 7.76 µM and the GI50 (T-47D breast) was 2.85 µM. For the same compound, the TGI (T-47D breast) was over 100 µM, the GI50 (MCF7 breast) was over 100 µM and the TGI (MCF7 breast) was over 100 µM. For the same compound, the GI50 (BT-549 breast) was 1.4 µM, the TGI (BT-549 breast) was over 100 µM and the GI50 (IGROV1 ovarian) was over 100 µM. For the same compound, the TGI (IGROV1 ovarian) was over 100 µM, the GI50 (DU-145 prostate) was over 100 µM and the TGI (DU-145 prostate) was over 100 µM. For the same compound, the GI50 (786-0 renal) was 2.63 µM, the TGI (786-0 renal) was over 100 µM and the GI50 (HS 578T breast) was 2.94 µM. It also gave a TGI (HS 578T breast) of over 100 µM, a GI50 (MOLT-4 leukemia) of over 100 µM and a TGI (MOLT-4 leukemia) of over 100 µM. The GI50 (SR leukemia) was over 100 µM, the TGI (SR leukemia) was over 100 µM and the GI50 (A498 renal) was 4.09 µM. For the same compound, the TGI (A498 renal) was over 100 µM, the GI50 (RXF 393 renal) was 3.32 µM and the TGI (RXF 393 renal) was 20.1 µM. The GI50 (HCT-15 colon) was over 100 µM, the TGI (HCT-15 colon) was over 100 µM and the GI50 (SK-MEL-5 melanoma) was over 100 µM. For the same compound, the TGI (SK-MEL-5 melanoma) was over 100 µM, the GI50 (SF-295 CNS) was 4.22 µM and the TGI (SF-295 CNS) was over 100 µM. It also gave a GI50 (UACC-257 melanoma) of over 100 µM, a TGI (UACC-257 melanoma) of over 100 µM and a GI50 (RPMI-8226 leukemia) of over 100 µM. The TGI (RPMI-8226 leukemia) was over 100 µM, the GI50 (SK-MEL-2 melanoma) was 15.9 µM and the TGI (SK-MEL-2 melanoma) was 82.8 µM. It also gave a GI50 (MDA-MB-435) of over 100 µM, a TGI (MDA-MB-435) of over 100 µM and a GI50 (HOP-92 NSCLC) of 2.32 µM. For the same compound, the TGI (HOP-92 NSCLC) was 62.6 µM, the GI50 (M14 melanoma) was over 100 µM and the TGI (M14 melanoma) was over 100 µM. The GI50 (KM12 colon) was over 100 µM, the TGI (KM12 colon) was over 100 µM and the GI50 (MALME-3M melanoma) was over 100 µM. The TGI (MALME-3M melanoma) was over 100 µM, the GI50 (U251 CNS) was 3.09 µM and the TGI (U251 CNS) was over 100 µM. The GI50 (SW-620 colon) was over 100 µM, the TGI (SW-620 colon) was over 100 µM and the GI50 (HCC-2998 colon) was over 100 µM. It also gave a TGI (HCC-2998 colon) of over 100 µM, a GI50 (K-562 leukemia) of over 100 µM and a TGI (K-562 leukemia) of over 100 µM. It also gave a GI50 (HL-60(TB) leukemia) of over 100 µM and a TGI (HL-60(TB) leukemia) of over 100 µM.
